Assay results: patent publication US20110160081A1, “FUNCTIONAL COMPLEMENTATION ASSAY FOR DEFINED GPCR OLIGOMERS” (priority 2008, published 2011)

What was measured:
[1] = test system: endogenous purinergic receptors; test: Aequorin assay, endogenous receptors in AEQ cells; type: cell-based
Text: To enable isolation of the signaling of the D2R from endogenous G proteins, and to control each of the components of the signaling complex, Flp-In 1-Rex-293 cells were engineered to stably express aequorin (AEQ cells) (see Example 1). Aequorin produces luminescence in a calcium-dependent manner in the presence of the substrate coelenterazine (23, 24), and it has been used to create a sensitive luminescence readout for GPCR-mediated PLC activation (25). In these cells, endogenous muscarinic or purinergic receptors signaled robustly via endogenous Gq, resulting in strong agonist-induced (ACH and ATP, respectively) luminescence signals (FIG. 7A).

[2] = test system: WT D2R coexpressed with D2/D4-Gqi5; test: Aequorin functional complementation assay, WT D2R as protomer A with D2/D4-Gqi5 as protomer B; type: cell-based, human; details: L745,870 1 μM; agonist quinpirole; n=9
Text: (§1) The signals were further normalized according to Flag tagged D2R expression level. To normalize for different levels of surface expression levels of the Flag-D2R-Gqi5 mutant constructs, the Emax at each expression level (FIG. 12F) was plotted as a function of different levels of expression of Flag-tagged wt D2R-Gqi5, the expression of which was controlled by varying the time after tetracycline induction (FIG. 12A). The level of Myc-D2R remained essentially unchanged (FIG. 12B). The standard curve was fit to a 1 site rectangular hyperbola using nonlinear regression in GraphPad Prism 4.0 (GraphPad Software Inc., La Jolla, Calif.) (FIG. 12G). The luminescence response of the various Flag-D2R-Gqi5 constructs was normalized using this standard curve to account for the effects of different expression levels, with activation of 1 defined as that observed after 12 hours of tetracycline induction of WT D2R-Gqi5. The Flag detection was approximately 5-fold more sensitive than that of Myc; thus, the excess of Myc-tagged protomer A, which cannot signal on its own, ensures that normalization based on surface expression of the Flag-tagged Gqi5-fused protomer B accurately reflects the productive signaling entities, each of which must contain a protomer A and a protomer B.

[3] = target: T1, SSTR5 coexpressed with D2R-Gqi5 (Homo sapiens, UniProt P14416+P35346); type: cell-based
T1 construct: signal peptide (N); expressed in transfected cells; host or cells: AEQ cells (Flp-in T-rex 293 with aequorin)

[4] = target: T2, SSTR5 coexpressed with D114A-Gqi5 (Homo sapiens, UniProt P35346); type: cell-based
T2 construct: signal peptide (N); expressed in transfected cells; host or cells: AEQ cells (Flp-in T-rex 293 with aequorin)

[5] = target: T3, D2R coexpressed with free Gqi5 (Homo sapiens, UniProt P14416); type: cell-based; details: pertussis toxin 100 ng/ml 16-24 hours
T3 construct: signal peptide (N); expressed in transfected cells; host or cells: Flp-in T-rex 293 cells stably expressing aequorin

[6] = target: T4, D2R coexpressed with D2-Gqi5 (Homo sapiens, UniProt P14416); test: Aequorin functional complementation assay, D2R coexpressed with D2R-Gqi5; type: cell-based; details: pertussis toxin 100 ng/ml 16-24 hours
T4 construct: signal peptide (N); expressed in transfected cells; host or cells: Flp-in T-rex 293 cells stably expressing aequorin
Text: as §1, with “B. […]” for “B.”

T1 sequence (P35346 whole entry): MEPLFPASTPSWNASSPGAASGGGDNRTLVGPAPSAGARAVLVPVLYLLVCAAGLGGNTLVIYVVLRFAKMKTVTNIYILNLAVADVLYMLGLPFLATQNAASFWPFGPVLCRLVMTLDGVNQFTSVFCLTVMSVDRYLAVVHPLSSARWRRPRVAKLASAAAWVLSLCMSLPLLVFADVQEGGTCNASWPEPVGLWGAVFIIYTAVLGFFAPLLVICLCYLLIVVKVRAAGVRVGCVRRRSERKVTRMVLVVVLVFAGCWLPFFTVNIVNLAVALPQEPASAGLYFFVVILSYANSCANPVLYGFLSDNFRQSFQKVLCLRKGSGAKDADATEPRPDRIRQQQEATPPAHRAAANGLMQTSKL
T1 sequence (P14416 with tags, fused parts or gaps isoform P14416-2): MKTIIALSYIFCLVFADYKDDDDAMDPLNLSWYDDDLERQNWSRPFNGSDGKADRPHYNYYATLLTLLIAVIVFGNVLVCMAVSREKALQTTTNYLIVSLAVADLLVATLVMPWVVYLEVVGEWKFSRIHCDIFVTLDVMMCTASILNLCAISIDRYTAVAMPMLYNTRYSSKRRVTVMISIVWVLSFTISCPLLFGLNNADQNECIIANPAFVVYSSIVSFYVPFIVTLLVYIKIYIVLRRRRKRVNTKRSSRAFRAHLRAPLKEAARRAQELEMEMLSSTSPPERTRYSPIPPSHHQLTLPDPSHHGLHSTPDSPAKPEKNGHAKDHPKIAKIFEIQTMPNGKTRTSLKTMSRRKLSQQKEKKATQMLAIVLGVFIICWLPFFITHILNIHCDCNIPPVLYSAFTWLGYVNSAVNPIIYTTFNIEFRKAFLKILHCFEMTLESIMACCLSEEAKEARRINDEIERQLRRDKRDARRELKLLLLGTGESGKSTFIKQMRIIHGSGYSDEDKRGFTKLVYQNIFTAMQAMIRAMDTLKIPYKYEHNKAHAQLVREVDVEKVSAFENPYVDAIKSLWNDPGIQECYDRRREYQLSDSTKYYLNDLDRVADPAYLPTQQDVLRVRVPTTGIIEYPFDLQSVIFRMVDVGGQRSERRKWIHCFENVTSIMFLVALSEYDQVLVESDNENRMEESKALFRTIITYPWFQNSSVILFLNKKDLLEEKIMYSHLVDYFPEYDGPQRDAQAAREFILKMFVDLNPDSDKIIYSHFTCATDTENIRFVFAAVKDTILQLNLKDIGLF
T2 sequence (P35346 whole entry, stated change not applied): as the sequence (P35346 whole entry) above
T2 sequence (P14416 with tags, fused parts or gaps isoform P14416-2 D114A partner): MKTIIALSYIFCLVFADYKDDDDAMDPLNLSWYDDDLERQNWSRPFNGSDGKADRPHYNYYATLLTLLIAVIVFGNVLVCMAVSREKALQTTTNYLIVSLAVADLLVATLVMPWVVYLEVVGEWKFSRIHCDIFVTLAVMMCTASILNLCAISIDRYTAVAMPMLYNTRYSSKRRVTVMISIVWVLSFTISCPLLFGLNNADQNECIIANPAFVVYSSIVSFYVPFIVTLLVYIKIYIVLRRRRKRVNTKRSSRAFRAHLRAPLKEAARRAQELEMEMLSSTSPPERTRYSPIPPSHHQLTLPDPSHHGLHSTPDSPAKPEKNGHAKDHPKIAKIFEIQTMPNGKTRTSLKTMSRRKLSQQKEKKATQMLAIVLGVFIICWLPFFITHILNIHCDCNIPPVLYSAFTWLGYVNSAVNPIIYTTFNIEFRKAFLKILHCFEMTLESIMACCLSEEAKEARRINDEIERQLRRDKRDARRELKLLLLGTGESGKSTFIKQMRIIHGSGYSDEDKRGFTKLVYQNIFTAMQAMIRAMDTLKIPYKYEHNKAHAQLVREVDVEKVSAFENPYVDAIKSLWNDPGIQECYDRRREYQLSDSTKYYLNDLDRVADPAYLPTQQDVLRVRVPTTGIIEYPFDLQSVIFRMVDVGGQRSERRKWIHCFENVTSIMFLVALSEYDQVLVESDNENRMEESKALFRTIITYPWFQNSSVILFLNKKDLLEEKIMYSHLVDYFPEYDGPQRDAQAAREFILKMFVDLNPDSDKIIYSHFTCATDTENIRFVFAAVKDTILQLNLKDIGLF
T4 sequence (P14416 with tags, fused parts or gaps isoform P14416-2): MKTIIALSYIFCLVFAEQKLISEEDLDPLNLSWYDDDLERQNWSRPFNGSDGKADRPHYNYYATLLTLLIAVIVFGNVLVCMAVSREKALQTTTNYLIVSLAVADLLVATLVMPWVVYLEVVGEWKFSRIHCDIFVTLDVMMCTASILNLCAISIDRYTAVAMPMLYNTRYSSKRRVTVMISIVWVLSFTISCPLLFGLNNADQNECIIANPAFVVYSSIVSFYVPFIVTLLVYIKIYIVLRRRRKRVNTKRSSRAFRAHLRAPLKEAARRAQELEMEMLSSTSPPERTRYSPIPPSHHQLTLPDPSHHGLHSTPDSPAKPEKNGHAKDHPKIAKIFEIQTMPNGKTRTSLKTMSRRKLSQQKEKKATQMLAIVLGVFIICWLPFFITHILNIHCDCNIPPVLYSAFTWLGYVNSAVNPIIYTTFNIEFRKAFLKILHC
T4 sequence (P14416 with tags, fused parts or gaps isoform P14416-2): as the sequence (P14416 with tags, fused parts or gaps isoform P14416-2 D114A partner) above, with A138D counted along it
T3 sequence (P14416 with tags, fused parts or gaps isoform P14416-2): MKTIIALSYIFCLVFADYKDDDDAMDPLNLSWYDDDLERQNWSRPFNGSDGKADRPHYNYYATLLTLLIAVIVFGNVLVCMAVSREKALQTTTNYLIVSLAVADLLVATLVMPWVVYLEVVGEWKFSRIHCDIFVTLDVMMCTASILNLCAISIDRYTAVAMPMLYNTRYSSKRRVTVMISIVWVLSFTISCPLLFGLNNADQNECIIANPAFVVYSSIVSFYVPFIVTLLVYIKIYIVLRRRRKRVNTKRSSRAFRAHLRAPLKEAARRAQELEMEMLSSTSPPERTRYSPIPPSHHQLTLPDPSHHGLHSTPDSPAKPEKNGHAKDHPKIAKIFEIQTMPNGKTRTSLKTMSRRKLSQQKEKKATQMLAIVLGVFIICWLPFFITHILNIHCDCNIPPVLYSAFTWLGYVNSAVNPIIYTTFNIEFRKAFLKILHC

Nc1ncnc2c1ncn2[C@@H]1O[C@H](COP(=O)(O)OP(=O)(O)OP(=O)(O)O)[C@@H](O)[C@H]1O [ATP]
agonist-induced luminescence signal via endogenous Gq [1]: strong

Cl.Cl.Cl.Clc1ccc(N2CCN(Cc3c[nH]c4ncccc34)CC2)cc1 [L745,870, 3-(4-[4-Chlorophenyl]piperazin-1-yl)-methyl-1H-pyrrolo[2,3-b]pyridine trihydrochloride]
maximal activation, % of that observed for D2R coexpressed with WT D2R-Gqi5 [2]: 156.7±7.3%

CCN1CCCC1CNC(=O)c1cc(S(N)(=O)=O)ccc1OC (centres unmarked) [sulpiride]
enhancement of potency of somatostatin by sulpiride relative to quinpirole ([3]; D2R inverse agonist sulpiride versus agonist quinpirole): about 6 fold
effect on SSTR5 activation (luminescence readout) ([3]; coadministration of 1 μM with somatostatin): enhanced
shift in the SST curve ([3]; in presence of compound, data not shown): full shift
effect on SSTR5 activation (luminescence readout) [4]: without effect

pertussis toxin
effect of PTX on increase in luminescence [5]: unaffected
effect of pertussis toxin treatment on activation [6]: lack of effect
